{"source": "paper PMC2248166", "about": "“Quantitative peptide binding motifs for 19 human and mouse MHC class I molecules derived using positional scanning combinatorial peptide libraries” (Immunome Research, 2008)", "note": "Where a SMILES comes first, the peptide text is derived from it."}
{"target": "HLA B*1501 (Homo sapiens, UniProt P01889, A329T/A93T/A95T/C349S/D201E/D98Y/E187L/E204Q/E69M/E70A/K202T/N87E/Q94N/R155S/R180W/S121R/S35A/S48A/V306I/V36M/Y140S/Y91S)", "test": "biochemical", "type": "binding", "units": {"IC50": "nM"}}
{"smiles": "CC(C)C[C@H](N)C(=O)N[C@@H](C)C(=O)N[C@@H](CCCCN)C(=O)N[C@@H](CCCCN)C(=O)N[C@@H](CO)C(=O)N[C@@H](Cc1ccc(O)cc1)C(=O)N[C@H](C(=O)N[C@H](C(=O)N[C@@H](Cc1ccccc1)C(=O)O)C(C)C)C(C)C", "note": "[3102.0811] (H-LAKKSYVVF-OH)", "IC50": 97}
{"smiles": "CC[C@H](C)[C@H](NC(=O)[C@H](CO)NC(=O)[C@@H](N)CC(C)C)C(=O)N[C@@H](Cc1ccccc1)C(=O)N[C@@H](Cc1ccccc1)C(=O)N[C@H](C(=O)N[C@H](C(=O)N[C@H](C(=O)N[C@@H](C)C(=O)O)C(C)C)C(C)C)[C@@H](C)CC", "note": "[3102.1004] (H-LSIFFIVVA-OH)", "IC50": 82}
{"smiles": "CSCC[C@H](NC(=O)[C@@H](N)CC(C)C)C(=O)N[C@@H](CC(N)=O)C(=O)N[C@@H](CC(N)=O)C(=O)N[C@@H](CC(C)C)C(=O)N[C@@H](CC(=O)O)C(=O)N[C@H](C(=O)N[C@@H](CC(C)C)C(=O)N[C@@H](Cc1ccccc1)C(=O)O)[C@@H](C)O", "note": "[3102.0836] (H-LMNNLDTLF-OH)", "IC50": 86}
{"smiles": "CC[C@H](C)[C@H](NC(=O)[C@H](CCC(N)=O)NC(=O)[C@@H](N)CC(C)C)C(=O)N[C@@H](Cc1ccccc1)C(=O)N[C@@H](CO)C(=O)N[C@@H](CC(N)=O)C(=O)N[C@@H](CO)C(=O)N[C@H](C(=O)NCC(=O)O)C(C)C", "note": "[3102.0809] (H-LQIFSNSVG-OH)", "IC50": 2.1}
{"smiles": "CSCC[C@H](NC(=O)[C@H](Cc1c[nH]cn1)NC(=O)[C@H](CCCCN)NC(=O)[C@H](CC(N)=O)NC(=O)[C@@H](NC(=O)[C@H](CC(N)=O)NC(=O)[C@H](CO)NC(=O)[C@H](CCC(N)=O)NC(=O)[C@@H](N)CCCCN)[C@@H](C)O)C(=O)O", "note": "[3102.1026] (H-KQSNTNKHM-OH)", "IC50": 28}
{"smiles": "CSCC[C@H](NC(=O)[C@H](Cc1c[nH]cn1)NC(=O)[C@H](CCC(=O)O)NC(=O)[C@H](Cc1ccccc1)NC(=O)[C@H](Cc1ccc(O)cc1)NC(=O)CNC(=O)[C@H](CCCNC(=N)N)NC(=O)[C@H](CO)NC(=O)[C@@H](N)CCSC)C(=O)O", "note": "[3102.0982] (H-MSRGYFEHM-OH)", "IC50": 31}
{"smiles": "CC(C)C[C@H](NC(=O)[C@H](Cc1ccccc1)NC(=O)[C@H](C)NC(=O)CNC(=O)[C@H](CS)NC(=O)[C@H](CC(C)C)NC(=O)[C@@H](N)CCC(=O)O)C(=O)N[C@@H](Cc1ccccc1)C(=O)N[C@@H](Cc1ccc(O)cc1)C(=O)O", "note": "[3102.1015] (H-ELCGAFLFY-OH)", "IC50": 7.5}
{"smiles": "CC(C)C[C@H](NC(=O)[C@H](CS)NC(=O)[C@H](CO)NC(=O)[C@H](CCCCN)NC(=O)[C@@H](NC(=O)[C@@H](N)CCCCN)C(C)C)C(=O)N[C@@H](CS)C(=O)N[C@@H](CO)C(=O)N[C@@H](Cc1ccccc1)C(=O)O", "note": "[3102.0813] (H-KVKSCLCSF-OH)", "IC50": 17}
{"smiles": "CC[C@H](C)[C@H](NC(=O)[C@H](CCC(=O)O)NC(=O)[C@@H](N)CO)C(=O)N[C@@H](CCCNC(=N)N)C(=O)N[C@@H](Cc1c[nH]c2ccccc12)C(=O)N[C@@H](CCC(=O)O)C(=O)N[C@@H](CCC(=O)O)C(=O)N[C@@H](CO)C(=O)N[C@@H](Cc1ccccc1)C(=O)O", "note": "[3102.0890] (H-SEIRWEESF-OH)", "IC50": 47}
{"smiles": "CC[C@H](C)[C@H](NC(=O)[C@H](CCSC)NC(=O)[C@@H](N)CCSC)C(=O)N[C@@H](CC(=O)O)C(=O)N[C@@H](CC(=O)O)C(=O)N[C@@H](Cc1ccccc1)C(=O)NCC(=O)N[C@H](C(=O)N[C@@H](C)C(=O)O)[C@@H](C)O", "note": "[3102.0898] (H-MMIDDFGTA-OH)", "IC50": 7.6}
{"smiles": "CC[C@H](C)[C@H](NC(=O)[C@H](CC(C)C)NC(=O)[C@@H](N)CO)C(=O)N[C@@H](Cc1ccc(O)cc1)C(=O)N[C@@H](CC(C)C)C(=O)N[C@@H](CS)C(=O)N[C@H](C(=O)N[C@@H](Cc1ccccc1)C(=O)N[C@@H](CCSC)C(=O)O)[C@@H](C)O", "note": "[3102.1017] (H-SLIYLCTFM-OH)", "IC50": 4.5}
{"smiles": "CC[C@H](C)[C@H](NC(=O)[C@@H](NC(=O)[C@H](Cc1ccccc1)NC(=O)[C@H](CCCCN)NC(=O)[C@H](CCC(N)=O)NC(=O)[C@@H](N)CCSC)[C@@H](C)O)C(=O)N[C@@H](CC(C)C)C(=O)N[C@@H](CCC(=O)O)C(=O)N[C@@H](Cc1ccc(O)cc1)C(=O)O", "note": "[3102.0953] (H-MQKFTILEY-OH)", "IC50": 10}
{"smiles": "CC[C@H](C)[C@H](NC(=O)[C@H](C)NC(=O)[C@H](CC(C)C)NC(=O)[C@@H](N)CC(C)C)C(=O)N[C@@H](CO)C(=O)N[C@@H](C)C(=O)N[C@H](C(=O)N[C@@H](Cc1ccc(O)cc1)C(=O)N[C@@H](Cc1ccccc1)C(=O)O)C(C)C", "note": "[3102.0875] (H-LLAISAVYF-OH)", "IC50": 32}
{"smiles": "CSCC[C@H](NC(=O)[C@@H](N)CCCNC(=N)N)C(=O)N[C@@H](CC(N)=O)C(=O)N[C@H](C(=O)N[C@@H](Cc1ccccc1)C(=O)N[C@@H](CC(N)=O)C(=O)NCC(=O)N[C@@H](Cc1c[nH]cn1)C(=O)N[C@@H](CC(C)C)C(=O)O)C(C)C", "note": "[3102.0797] (H-RMNVFNGHL-OH)", "IC50": 28}
{"smiles": "CC[C@H](C)[C@H](NC(=O)[C@H](CO)NC(=O)[C@@H](N)CCSC)C(=O)N[C@H](C(=O)N[C@@H](CO)C(=O)N[C@@H](Cc1ccccc1)C(=O)N[C@@H](Cc1ccccc1)C(=O)N1CCC[C@H]1C(=O)N[C@@H](Cc1ccccc1)C(=O)O)[C@@H](C)CC", "note": "[3102.0947] (H-MSIISFFPF-OH)", "IC50": 0.17}
{"smiles": "CC[C@H](C)[C@H](NC(=O)[C@H](CO)NC(=O)[C@H](CO)NC(=O)[C@H](CCCCN)NC(=O)[C@@H](NC(=O)[C@@H](N)CC(C)C)C(C)C)C(=O)N[C@@H](CC(C)C)C(=O)N[C@H](C(=O)N[C@@H](CC(C)C)C(=O)O)[C@@H](C)O", "note": "[3102.0793] (H-LVKSSILTL-OH)", "IC50": 3.1}
{"smiles": "CC[C@H](C)[C@H](NC(=O)[C@H](CCC(N)=O)NC(=O)[C@H](CCCNC(=N)N)NC(=O)[C@H](CC(C)C)NC(=O)[C@@H](N)CCCCN)C(=O)N[C@H](C(=O)N[C@@H](C)C(=O)N[C@@H](Cc1ccc(O)cc1)C(=O)N[C@@H](Cc1ccccc1)C(=O)O)C(C)C", "note": "[3102.0815] (H-KLRQIVAYF-OH)", "IC50": 7.6}
{"smiles": "CC[C@H](C)[C@H](N)C(=O)N[C@H](C(=O)N[C@@H](CO)C(=O)N[C@@H](CO)C(=O)N[C@@H](CO)C(=O)N[C@H](C(=O)N[C@@H](CC(C)C)C(=O)N[C@@H](Cc1ccc(O)cc1)C(=O)N[C@@H](Cc1ccccc1)C(=O)O)[C@@H](C)O)[C@@H](C)CC", "note": "[3102.1018] (H-IISSSTLYF-OH)", "IC50": 1.1}
{"smiles": "CC[C@H](C)[C@H](NC(=O)[C@@H](NC(=O)[C@@H](NC(=O)[C@H](C)NC(=O)[C@H](CCSC)NC(=O)[C@@H](N)Cc1ccc(O)cc1)[C@@H](C)O)[C@@H](C)O)C(=O)N[C@@H](CC(C)C)C(=O)N[C@@H](CCC(=O)O)C(=O)N[C@@H](CCSC)C(=O)O", "note": "[3102.0830] (H-YMATTILEM-OH)", "IC50": 2.2}
{"smiles": "CC[C@H](C)[C@H](NC(=O)[C@H](Cc1c[nH]cn1)NC(=O)[C@H](CC(=O)O)NC(=O)[C@H](Cc1c[nH]cn1)NC(=O)[C@H](CO)NC(=O)[C@@H](N)Cc1ccccc1)C(=O)NCC(=O)N[C@@H](Cc1c[nH]cn1)C(=O)NCC(=O)O", "note": "[3102.0897] (H-FSHDHIGHG-OH)", "IC50": 32}
{"smiles": "C[C@@H](O)[C@H](N)C(=O)N[C@@H](CO)C(=O)NCC(=O)N[C@@H](CCCCN)C(=O)N[C@@H](Cc1ccc(O)cc1)C(=O)N[C@@H](Cc1ccccc1)C(=O)N[C@@H](CO)C(=O)N[C@H](C(=O)N[C@@H](Cc1ccccc1)C(=O)O)[C@@H](C)O", "note": "[3102.0812] (H-TSGKYFSTF-OH)", "IC50": 86}
{"smiles": "CC[C@H](C)[C@H](NC(=O)[C@@H](N)Cc1ccc(O)cc1)C(=O)N[C@@H](CO)C(=O)N[C@@H](CCCCN)C(=O)N[C@H](C(=O)N[C@@H](Cc1ccccc1)C(=O)N[C@@H](CCC(=O)O)C(=O)N[C@@H](Cc1c[nH]cn1)C(=O)N[C@H](C(=O)O)C(C)C)C(C)C", "note": "[3102.0810] (H-YISKVFEHV-OH)", "IC50": 94}
